Assay results: ChEMBL document CHEMBL5233262, “Anti-inflammatory activity of naturally occuring diarylheptanoids - A review” (Bioorg Med Chem, 2021)

Assays:
[1] = test system: RAW264.7; assay: Antiinflammatory activity in mouse RAW264.7 cells assessed as inhibition of LPS-induced NO production at 10 ug/ml incubated for 20 hrs by Griess reagent based microplate reader analysis; type: functional
[2] = test system: RAW264.7; assay: Antiinflammatory activity in mouse RAW264.7 cells assessed as inhibition of LPS-induced NO production incubated for 20 hrs by Griess reagent based microplate reader analysis; type: functional, cell-based; details: RAW264.7, 20 h
[3] = Antioxidant activity assessed as DPPH radical scavenging activity incubated for 30 mins by spectrophotometric analysis; type: functional
[4] = Antioxidant activity assessed as nitroblue tetrazolium superoxide radical scavenging activity by spectrophotometric analysis; type: functional
[5] = Antioxidant activity assessed as nitroblue tetrazolium superoxide radical scavenging activity incubated for 10 mins by spectrophotometric analysis; type: functional
[6] = test system: RAW264.7; assay: Antiinflammatory activity in mouse RAW264.7 cells assessed as inhibition of LPS-induced NO production preincubated for 1 hrs followed by LPS stimulation and measured after 24 hrs by Griess reagent based analysis; type: functional, cell-based
[7] = test system: RAW264.7; assay: Antiinflammatory activity in mouse RAW264.7 cells assessed as inhibition of LPS-induced NO production incubated for 24 hrs by Griess method; type: functional, cell-based; details: RAW264.7, 24 h
[8] = test system: RAW264.7; assay: Antiinflammatory activity in mouse RAW264.7 cells assessed as inhibition of LPS-induced NO production incubated for 20 hrs by Griess method; type: functional, cell-based; details: RAW264.7, 20 h
[9] = test system: RAW264.7; assay: Antiinflammatory activity in mouse RAW264.7 cells assessed as inhibition of LPS-induced NO production incubated for 18 hrs by Griess method; type: functional, cell-based; details: RAW264.7, 18 h
[10] = test system: Rattus norvegicus; assay: Antiinflammatory activity in rat model of carrageenan-induced hind paw edema assessed as reduction in paw thickness at 100 mg/kg,ip 30mins before carrageenin exposure and measured after 3 hrs; type: functional; parameters: scale not given: the % may be the effect or the level left
[11] = test system: Rattus norvegicus; assay: Antiinflammatory activity in rat model of ethyl phenylpropiolate-induced ear edema assessed as 30% reduction in ear thickness administered topically and measured after 30 mins; type: functional; details: 0.5 h
[12] = test system: Rattus norvegicus; assay: Antiinflammatory activity in rat model of ethyl phenylpropiolate-induced ear edema assessed as 30% reduction in ear thickness administered topically and measured after 1 hr; type: functional
[13] = test system: Rattus norvegicus; assay: Antiinflammatory activity in rat model of ethyl phenylpropiolate-induced ear edema assessed as reduction in ear thickness administered topically and measured after 30 mins; type: functional; details: 0.5 h
[14] = test system: Rattus norvegicus; assay: Antiinflammatory activity in rat model of ethyl phenylpropiolate-induced ear edema assessed as reduction in ear thickness administered topically and measured after 1 hr; type: functional
[15] = test system: RAW264.7; assay: Antiinflammatory activity in mouse RAW264.7 cells assessed as inhibition of LPS-induced NO production by Griess method; type: functional, cell-based
[16] = test system: RAW264.7; assay: Antiinflammatory activity in mouse RAW264.7 cells assessed as inhibition of LPS-induced NO production incubated for 24 hrs by Griess reagent based analysis; type: functional, cell-based; details: RAW264.7, 24 h
[17] = test system: RAW264.7; assay: Antiinflammatory activity in mouse RAW264.7 cells assessed as inhibition of LPS-induced TNFalpha production preincubated for 1 hr followed by LPS stimulation and measured after 18 hrs by immunoassay; type: functional, cell-based
[18] = test system: RAW264.7; assay: Antiinflammatory activity in mouse RAW264.7 cells assessed as inhibition of LPS-induced NF-kappaB expression preincubated for 1 hr followed by LPS stimulation and measured after 18 hrs by qPCR analysis; type: functional, cell-based
[19] = test system: RAW264.7; assay: Antiinflammatory activity in mouse RAW264.7 cells assessed as inhibition of LPS-induced iNOS expression at 25 uM; type: functional
[20] = test system: U-937; assay: Antiinflammatory activity in PMA-stimulated human U-937 cells assessed as inhibition of TNFalpha secretion at 1 ug/ml by ELISA; type: functional
[21] = test system: U-937; assay: Antiinflammatory activity in PMA-stimulated human U-937 cells assessed as inhibition of IL-1beta secretion at 1 ug/ml by ELISA; type: functional
[22] = test system: U-937; assay: Antiinflammatory activity in PMA-stimulated human U-937 cells assessed as inhibition of IL-1beta protein expression at 1 ug/ml by western blot analysis; type: functional
[23] = test system: RAW264.7; assay: Antiinflammatory activity in mouse RAW264.7 cells assessed as inhibition of LPS-induced NO production at 30 uM preincubated for 0.5 hrs followed by LPS stimulation and measured after 24 hrs by Griess reagent based analysis; type: functional; details: time 24.5 hrs
[24] = test system: J774.A1; assay: Antiinflammatory activity in mouse J774.A1 cells assessed as inhibition of LPS-induced NO production incubated for 24 hrs by Griess reagent based analysis; type: functional, cell-based; details: J774.A1, 24 h
[25] = test system: Mus musculus; assay: Antiinflammatory activity in ICR mouse model of TPA-induced ear edema assessed as inhibition of ear inflammation at 1 mg,TOP for 30 mins followed by TPA addition and measured after 6 hrs; type: functional; details: time 390 min, 6.5 h
[26] = test system: Mus musculus; assay: Antiinflammatory activity in ICR mouse model of TPA-induced ear edema assessed as inhibition of ear inflammation at 20 uM,TOP for 30 mins followed by TPA addition and measured after 5 hrs; type: functional; details: 5.5 h, time 330 min
[27] = target: T1, Polyunsaturated fatty acid 5-lipoxygenase (Homo sapiens, UniProt P09917); assay: Inhibition of 5-LOX in human neutrophils assessed as reduction in 5-HETE formation preincubated for 5 mins followed by arachidonic acid and A23187 addition and measured after 5 mins by RP-HPLC analysis; type: cell-based, Neutrophil
T1 sequence (P09917 whole entry): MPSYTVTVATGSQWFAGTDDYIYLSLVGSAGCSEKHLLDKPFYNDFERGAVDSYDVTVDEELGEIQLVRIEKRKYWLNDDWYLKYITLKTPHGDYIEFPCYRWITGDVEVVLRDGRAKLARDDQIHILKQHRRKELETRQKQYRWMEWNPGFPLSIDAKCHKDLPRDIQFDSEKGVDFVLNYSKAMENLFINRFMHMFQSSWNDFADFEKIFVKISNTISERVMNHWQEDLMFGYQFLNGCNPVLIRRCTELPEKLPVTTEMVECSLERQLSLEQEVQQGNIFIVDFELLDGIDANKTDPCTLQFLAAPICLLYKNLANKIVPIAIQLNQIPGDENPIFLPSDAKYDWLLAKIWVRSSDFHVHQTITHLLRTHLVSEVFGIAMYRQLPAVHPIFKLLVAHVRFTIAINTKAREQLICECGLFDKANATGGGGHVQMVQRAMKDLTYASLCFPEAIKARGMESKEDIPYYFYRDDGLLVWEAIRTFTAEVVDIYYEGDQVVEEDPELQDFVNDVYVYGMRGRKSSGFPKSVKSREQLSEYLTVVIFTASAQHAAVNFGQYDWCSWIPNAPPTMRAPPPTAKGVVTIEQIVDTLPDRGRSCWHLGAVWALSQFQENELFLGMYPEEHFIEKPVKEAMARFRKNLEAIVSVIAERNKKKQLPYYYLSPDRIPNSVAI

[28] = Inhibition of COX in bovine seminal vesicle assessed as reduction in PGE2 production using arachidonic acid as substrate; type: tissue-based, Bos taurus
[29] = test system: Zingiber officinale; assay: Inhibition of prostaglandin biosynthesis in ginger; type: functional, organism-based
[30] = test system: RAW264.7; assay: Antiinflammatory activity in mouse RAW264.7 cells assessed as inhibition of LPS-induced NO production for 24 hrs by colorimetric analysis; type: functional, cell-based; details: RAW264.7, 24 h
[31] = test system: RAW264.7; assay: Antiinflammatory activity in mouse RAW264.7 cells assessed as inhibition of LPS-induced NF-kappaB activation incubated for 24 hrs by SEAP microplate reader analysis; type: functional, cell-based; details: RAW264.7, 24 h
[32] = test system: Mus musculus; assay: Antiinflammatory activity in TPA-induced ear edema ICR mouse model assessed as inhibition of ear inflammation at 1 ug, TOP for 30 mins followed by TPA addition and measured after 6 hrs; type: functional; details: dose 1 µg, time 390 min, 6.5 h
[33] = test system: Rattus norvegicus; assay: Antiinflammatory activity in Wistar rat model of carrageenan-induced paw edema assessed as reduction in paw thickness at 10 mg/kg,po and measured after 5 hrs; type: functional; parameters: scale not given: the % may be the effect or the level left
[34] = test system: RAW264.7; assay: Antiinflammatory activity in mouse RAW264.7 cells assessed as inhibition of KLA-induced TNFalpha expression at 0.06 mg/ml and measured after 24 hrs by ELISA; type: functional

Question: For `COc1cc(CCC(=O)CC(O)CCc2ccc(O)c(OC)c2)ccc1O` (stereo not drawn) [HEXAHYDROCURCUMIN], which inhibition at 10 µg/mL [1] is on record?
Answer: 32%

Question: And the IC50 [2]?
Answer: > 30 µM

Question: With `O=C(CCCCc1ccc(O)c(O)c1)CCc1ccc(O)c(O)c1` as the compound, how does the IC50 [3] read?
Answer: 20.1 µM

Question: And the IC50 [4]?
Answer: 30.1 µM

Question: And the IC50 [5]?
Answer: 12.7 µM

Question: What about the IC50 [6] of the same compound?
Answer: 6.6 µM

Question: What about the IC50 [7] of the same compound?
Answer: 22.7 µM

Question: What about the IC50 [8] of the same compound?
Answer: 2.6 µM

Question: What about the IC50 [9] of the same compound?
Answer: 16.8 µM

Question: Which Activity [10] does the source give for `OC(CC/C=C/c1ccccc1)CCc1ccccc1` (stereo not drawn) here?
Answer: 30%

Question: What about the ID30 [11] of the same compound?
Answer: 35 µg

Question: What about the ID30 [12] of the same compound?
Answer: 28 µg

Question: With `CCCCC1C(=O)N(c2ccccc2)N(c2ccc(O)cc2)C1=O` (stereo not drawn) [OXYPHENBUTAZONE ANHYDROUS] as the compound, how does the ID50 [13] read?
Answer: 12 µg

Question: What about the ID50 [14] of the same compound?
Answer: 46 µg

Question: And the ID30 [11]?
Answer: 0.2 µg

Question: What about the ID30 [12] of the same compound?
Answer: 0.3 µg

Question: With `COc1cc(C(=O)[C@@H](O)[C@@H]2CCC[C@H](c3ccc(O)c(OC)c3)O2)ccc1O` as the compound, how does the IC50 [15] read?
Answer: 38.9 µM

Question: What does the source list for `COc1ccc2cc1Oc1ccc(c(O)c1OC)CCCC[C@H](O)CC2`?
Answer: IC50 [16]: 18.2 µM; IC50 [17]: 22.3 µM; IC50 [18]: 9.4 µM

Question: With `COc1cc(C[C@H]2O[C@@H](CC(=O)c3ccc(O)c(OC)c3)C[C@H]2O)ccc1O` as the compound, how does the IC50 [15] read?
Answer: > 100 µM

Question: Which results are given for `COc1cc(CCC(O)CC(O)CCc2ccc(O)c(O)c2)ccc1O` (stereo not drawn)?
Answer: IC50 [2]: 22.8 µM; inhibition at 25 µM [19]: 32%

Question: What does the source list for `Oc1ccc(CCC(O)CC/C=C/c2ccccc2)cc1` (stereo not drawn)?
Answer: inhibition at 1 µg/mL [20]: 19%; inhibition at 1 µg/mL [21]: 20%; inhibition at 1 µg/mL [22]: 58%

Question: Which results are given for `OC[C@H]1O[C@@H](O[C@H](CCCCc2ccc(O)cc2)CCc2ccc(O)cc2)[C@H](O)[C@@H](O)[C@@H]1O`?
Answer: inhibition at 30 µM [23]: 24%; IC50 [24]: 100 µM; ID50 [25]: 0.66 mg

Question: Which results are given for `COc1cc(CCC(=O)CCCCc2ccccc2)ccc1O`?
Answer: inhibition in vivo at 20 µM [26]: 43%; IC50 [27]: 5.4 µM; IC50 [28]: 16 µM; IC50 [29]: 0.5 µM

Question: Which results are given for `COc1cc(CCC(O)CC(O)CCc2ccccc2)ccc1O` (stereo not drawn)?
Answer: inhibition at 10 µg/mL [1]: 27%; IC50 [2]: > 30 µM

Question: With `Oc1ccc(CCC(O)CC/C=C/c2ccccc2)cc1O` (stereo not drawn) as the compound, how does the inhibition at 1 µg/mL [20] read?
Answer: 44%

Question: And the inhibition at 1 µg/mL [21]?
Answer: 30%

Question: What about the inhibition at 1 µg/mL [22] of the same compound?
Answer: 64%

Question: For `Oc1ccc(CCC(O)/C=C/C=C/c2ccccc2)cc1` (stereo not drawn), which IC50 [30] is on record?
Answer: 0.66 µM

Question: Which IC50 [16] does the source give for `C=C1C(=O)O[C@@H]2[C@H]3O[C@]3(C)CC/C=C(\C)CC[C@@H]12` here?
Answer: 2.4 µM

Question: What about the IC50 [17] of the same compound?
Answer: 2.6 µM

Question: What about the IC50 [31] of the same compound?
Answer: 3.4 µM

Question: What about the IC50 [18] of the same compound?
Answer: 3.4 µM

Question: For `O=C(/C=C/CCc1ccccc1)CCc1ccccc1`, which ID50 [32] is on record?
Answer: 2.7 µmol

Question: And the IC50 [2]?
Answer: 6.8 µM

Question: What about the Activity [33] of the same compound?
Answer: 4.7%

Question: And the inhibition at 25 µM [19]?
Answer: 71%

Question: What about the inhibition at 60 µg/mL [34] of the same compound?
Answer: 38%
